In a melting point compilation (Tetko et al.):

SMILES | melting point [°C]
Cc1ccc(NC(=O)OCC(F)(F)F)s1 | 73 to 75
COc1cc(NC(=O)C2CC2)c(C(=O)O)cc1OC | 236 to 238
Cc1ccc(NS(=O)(=O)c2cc([N+](=O)[O-])ccc2NN)c(C)c1 | 165 to 167
COc1cc(CC#N)c(Br)cc1OC(F)F | 80 to 82
CC1Oc2c(cccc2C(=O)O)NC1=O (configuration not stated) | 281 to 283
CC(=O)c1ccc(N)cc1Cl | 58 to 60
O=C(O)CCn1cnc2cc(F)c(F)cc21 | 157 to 159
Nc1cccc2oc(C(F)(F)F)nc12 | 49 to 51
CC(O)c1ccc(Oc2ccc(Br)cc2)cc1 (configuration not stated) | 67 to 69
NC(=O)CC(N)=S | 97 to 110
CC(=O)Oc1cc(C)ccc1C(=O)O | 139 to 141
CC(Cl)C(=O)Nc1nc2ccc(F)cc2s1 (configuration not stated) | 126 to 128
CC(C)(C)C(=O)NCC(=O)O | 132 to 134
Nc1cc(C(F)(F)F)no1 | 52 to 54
COC(=O)c1ncsc1S(N)(=O)=O | 155 to 157
O=C(O)c1cc2c(OC(F)F)cccc2[nH]1 | 215 to 217
COC(=O)NC(C(=O)O)C(C)C (configuration not stated) | 83 to 85
CCOC(=O)c1sc2cc(Cl)ccc2c1Cl | 75 to 77
Nc1ccc(Cl)cc1C(=O)Nc1ccc(Cl)cn1 | 177 to 179
Cc1c(C(=O)O)sc2nc(CCl)[nH]c(=O)c12 | 322 to 324
COCc1nc(Cl)cc(Cl)n1 | 43 to 45
CC(=O)N(C)c1nc(CCl)cs1 | 139 to 141
COc1ccc(NS(=O)(=O)c2ccc(NN)c([N+](=O)[O-])c2)cc1 | 204 to 206
Nc1cc(-c2ccc(F)cc2F)no1 | 110 to 112

SMILES | melting point [°C]
O=C(Nc1sccc1C(=O)O)c1ccc2c(c1)CCC2 | 214 to 216
CC(C)(C)OC(=O)NC(C)(C)C(N)=S | 169 to 171
Cn1nc(C(=O)O)ccc1=O | 170 to 175
O=C(O)C1CCCN1S(=O)(=O)c1ccc(Cl)s1 (configuration not stated) | 44 to 46
O=C(O)C1CC(=O)N(C2CCS(=O)(=O)C2)C1 (configuration not stated) | 255 to 257
Cn1c(S)nnc1CC1CCS(=O)(=O)C1 (configuration not stated) | 237 to 239
Nc1ncc2c(n1)CCC1(C2)OCCO1 | 215 to 217
CCOC(=O)c1cn[nH]c1C(F)F | 64 to 66
COc1cc(F)cc(C(=O)O)c1N | 211 to 213
Brc1ccc2c(c1)CCCCN2 | 52 to 54
O=C(O)C1(c2c(Cl)cccc2Cl)CC1 | 216 to 218
COc1cc(C=O)c2c(c1)CC(C)O2 (configuration not stated) | 71 to 73
Cc1c(O)cccc1OCCN1CCOCC1 | 117 to 119
CC(Cl)C(=O)NC(C)c1ccc2c(c1)CCCC2 (configuration not stated) | 106 to 108
Cc1n[nH]c(=O)c2noc(C)c12 | 213 to 215
Cc1c(C(=O)O)cnn1C1CCS(=O)(=O)C1 (configuration not stated) | 249 to 251
CN(C)C(=O)Nc1ccc(Cl)c(C(=O)O)c1 | 214 to 216
CC1CCCCN1C(=O)c1ccc(N)cc1Cl (configuration not stated) | 186 to 188
Cc1ccc(-c2cnnc(N)n2)cc1 | 277 to 279
NC(=O)c1cc(OC2CCNCC2)ccn1 | 129 to 131
Cc1nnc(N2CCCC2)c(C(N)=S)c1C | 169 to 171
O=C(O)C1(c2cccc(C(F)(F)F)c2)CCCC1 | 111 to 113
O=C(O)CN1C(=O)CNC1=O | 185 to 187
Cc1cc(C(F)(F)F)c2c(C)c(C(=O)O)sc2n1 | 259 to 261

SMILES | melting point [°C]
CCNC(=O)N1CCc2c(cccc2-n2nnc(C(=O)O)c2C)C1 | 200 to 202
CC1CCc2c(sc3nc(CCl)[nH]c(=O)c23)C1 (configuration not stated) | 180 to 182
NC(=O)C1COCCN1 (configuration not stated) | 168 to 170
CC(C)C(C(=O)O)N1CCCC1=O (configuration not stated) | 130 to 132
NC1CCCC(C(=O)NC2CC2)C1 (configuration not stated) | 97 to 99
Nc1cc2c(cc1NC(=O)c1cccs1)OCCO2 | 178 to 180
O=Cc1ccc(Oc2ccc([N+](=O)[O-])cc2Cl)c(F)c1 | 81 to 83
CCOC(=O)CC(=O)c1[nH]c(C)c(C(=O)OCC)c1C | 141 to 143
NC(=O)Nc1ccc(CC(=O)O)cc1 | 179 to 182
COc1ccc(OC)c(CBr)c1 | 77 to 79
NS(=O)(=O)c1c[nH]cn1 | 232 to 234
CS(=O)(=O)NC1CCC(O)CC1 (configuration not stated) | 149 to 151
COC(=O)c1ccc(F)c(S(=O)(=O)Cl)c1 | 48 to 50
NC(=O)c1coc(Br)c1 | 165 to 167
Cc1nc(C)c(-c2csc(N)n2)s1 | 125 to 127
Cn1c(CO)nnc1C1CCC1 | 133 to 135
O=C(O)C1(C(=O)NC2CC2)CCC1 | 139 to 141
N#Cc1ccc(NC(=O)NC(CCC(=O)O)C(=O)O)cc1 (configuration not stated) | 169 to 171
NC(=S)Nc1ccc(OC(F)(F)F)cc1 | 136 to 138
Nc1cc(Cl)ccc1S(N)(=O)=O | 142 to 144
CCC(=O)CNC(=O)CCl | 81 to 83
O=C1CCCc2cc(S(=O)(=O)Cl)ccc2N1 | 208 to 210
O=C(O)c1ccc(N2CCOCC2)c([N+](=O)[O-])c1 | 186 to 188

More lines, now with the values ahead:

melting point [°C] | SMILES
220 to 222 | O=C(O)Cc1csc2nc(-c3ccccc3)cn12
118 to 120 | Nc1cc(-c2ccccc2F)no1
144 to 146 | NC(=O)c1coc2ccccc12
69 to 71 | O=Cc1c(Cl)cccc1N1CCCC1
149 to 151 | Nc1ccc(-c2nc3cccc(Cl)c3s2)cc1
239 to 241 | O=C(Nc1cn[nH]c1)c1ccncc1
218 to 220 | Nc1nnc(-c2ccccc2Cl)[nH]1
154 to 156 | O=[N+]([O-])c1cccc(-c2cn[nH]c2)c1
84 to 86 | O=Cc1cnn(-c2cccc(Cl)c2)n1
90 to 92 | Cc1ccc(-n2c(SCC(=O)NN)nnc2-c2ccccc2)cc1
104 to 106 | O=S(=O)(Cl)c1ccc(F)c2ncccc12
47 to 49 | CC(=O)c1ccc2ccccc2n1
53 to 55 | CNS(=O)(=O)c1ccccc1N
121 to 123 | Nc1cc(-c2cccs2)nn1-c1ccccc1
226 to 228 | NC(=NO)c1cccc(Cn2cnc3ccccc32)c1
279 to 281 | CCc1c(C)nc2ccccc2c1O

melting point [°C] | SMILES
171 to 173 | O=C(O)c1ccnc(OCc2ccccc2)c1
71 to 73 | Clc1ccc(Cn2cc(Br)cn2)cc1
206 to 208 | NC(=O)c1cccc(OCC(=O)O)c1
137 to 139 | CC(NC(=O)c1ccccc1Cl)C(=O)O (configuration not stated)
182 to 184 | O=c1ccc(S(=O)(=O)c2ccccc2)n[nH]1
148 to 150 | N=c1[nH]cnn1-c1ccccc1
159 to 161 | O=C1C=CC(=O)N1c1ccc(F)c(Cl)c1
204 to 206 | CN1C(=O)CCC(C(=O)O)C1c1ccccc1 (configuration not stated)
64 to 66 | O=C(O)Cc1cccc(OCc2ccccc2Cl)c1
223 to 225 | O=C(O)c1ccn(-c2ccccc2[N+](=O)[O-])n1
79 to 81 | Cc1cc(Br)c2ccccc2c1N
100 to 102 | CC(C)c1ccc(-n2nnnc2S)cc1
168 to 170 | Cc1[nH]c2ccccc2c1-c1csc(N)n1
201 to 203 | O=c1c(-c2ccccc2)coc2cc(O)ccc12
156 to 158 | CC(=O)c1c[nH]cc1-c1ccccc1
